Measurements published in ChEMBL document CHEMBL1759939, “Novel analogues of ketamine and phencyclidine as NMDA receptor antagonists” (Bioorg Med Chem Lett, 2011).

Assays:
[1] = target: Glutamate NMDA receptor; GRIN1/GRIN2B (Homo sapiens, UniProt Q05586+Q13224); assay: Inhibition of human recombinant NR1/NR2B receptor expressed in U2OS assessed as change in intracellular calcium level by FLIPR assay; type: cell-based; parameters: concentration or dose not given beside the values
[2] = target: Glutamate NMDA receptor; GRIN1/GRIN2A (Homo sapiens, UniProt Q05586+Q12879); assay: Inhibition of human recombinant NR1/NR2A receptor expressed in U2OS assessed as change in intracellular calcium level by FLIPR assay; type: cell-based; parameters: concentration or dose not given beside the values

Compound | Activity [1] [%] | IC50 [1] [µM] | Activity [2] [%] | IC50 [2] [µM]
CNC1(c2ccccc2Cl)CCCCC1=O (stereo not given) [KETAMINE] | > 100 | 5.01 | > 100 | 1.26
COc1ccc(C2(N3CCCCC3)CCCCC2)cc1 | 94 | 15.8 | 94 | 3.98
CNC1(c2ccccc2Cl)CCCN(C)C1=O (stereo not given) | 80 | > 251 | 80 | > 251
CN1CCC(c2ccccc2)(N2CCCCC2)C1=O (stereo not given) | 80 | 251 | 80 | 50.1
CCCCOc1ccc(C2(N3CCCCC3)CCCCC2)cc1 | 94 | > 50.1 | 94 | > 50.1
CNC1(c2ccccc2Cl)CCCNC1=O (stereo not given) | 80 | > 251 | 80 | 39.8
CNC1(c2ccc(OC)cc2Cl)CCCCC1=O (stereo not given) | 80 | 20 | 80 | 10
NC1(c2ccccc2Cl)CCCNC1=O (stereo not given) | 80 | > 50.1 | 80 | > 50.1
CN1CCCC(c2ccccc2)(N2CCCCC2)C1=O (stereo not given) | 80 | > 251 | 80 | 3.16
c1ccc(C2(N3CCCCC3)CCCCC2)cc1 [PHENCYCLIDINE] | > 100 | 1.26 | > 100 | 0.398
O=C1NCCC1(c1ccccc1)N1CCCCC1 (stereo not given) | 80 | 63.1 | 80 | 25.1
c1ccc(C2(N3CCCCC3)CCCCC2)nc1 | 94 | 7.94 | 94 | 2.51
O=C1NCCCC1(c1ccccc1)N1CCCCC1 (stereo not given) | 80 | 158 | 80 | 25.1
FC(F)(F)COc1cccc(C2(N3CCCCC3)CCCCC2)c1 | 94 | 31.6 | 94 | 5.01
CCCCOc1cccc(C2(N3CCCCC3)CCCCC2)c1 | 94 | 20 | 94 | 2
